Data published in patent US20230416329A1, “A PEPTIDE WITH DISULFIDE BONDS AND INHIBITORY ACTIVITY AGAINST SERINE PROTEASES, DERIVED HYBRID PEPTIDES THEREOF, AND USES THEREOF” (INSTITUTE OF MATERIA MEDICA , CHINESE ACADEMY OF MEDICAL …, priority 2020, published 2023).
Like-named read-outs stand apart in the source and are kept apart here. One block for each molecule: values may come before it. Bridge positions count the residues as written; N and C are the ends. Peptide text beside a SMILES is read from it.

Biological target: T1, bovine trypsin (Bos taurus, UniProt P00760)
T1 sequence (P00760 24-246): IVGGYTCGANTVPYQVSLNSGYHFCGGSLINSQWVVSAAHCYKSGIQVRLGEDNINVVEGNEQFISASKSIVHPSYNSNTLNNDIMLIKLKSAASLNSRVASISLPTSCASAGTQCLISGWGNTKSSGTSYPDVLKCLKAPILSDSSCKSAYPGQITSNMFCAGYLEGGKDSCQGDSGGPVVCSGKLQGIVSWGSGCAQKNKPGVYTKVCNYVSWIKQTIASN
Assay: Trypsin inhibitory activity of peptides (BApNA hydrolysis, OD405; IC50, Ki, residual activity)
Format: biochemical
Protocol: The substrates N-succinyl-Ala-Ala-Pro-Phe-p-nitroaniline (AAPFpNA), Nα—Benzoyl-L-arginine-4-nitroaniline hydrochloride (BApNA) and N-succinyl-[…] (AAApNA) are used in competitive binding reaction to determine the inhibitory activities against α-chymotrypsin, bovine trypsin, and porcine pancreatic elastase, respectively. Experiments for α-chymotrypsin and bovine trypsin inhibition were measured in 20 mM CaCl2, 50 mM Tris-HCl buffer (pH 7.8), and that for porcine elastase inhibition was measured in 50 mM Tris-HCl buffer (pH 8.0). The concentration of the peptide was measured using optical density (OD) at 280 nm. The Michaelis constant (Km) of the enzyme hydrolysis substrate is calculated from the initial rate of substrate hydrolysis at 405 nm. The absorbance value of the substrate was measured at 405 nm after complete hydrolysis. All data were processed using nonlinear regression.
• (1) Added 200 μL of reaction buffer (20 mM CaCl2 and 50 mM Tris-HCl, pH 7.8) into the 96-well plate, and preheated at 37° C. for 15 min. Then added 5 μL of different concentrations of substrates (p-Nitroanilide, pNA, 0.5% in DMSO), and mixed by centrifugation at 500 rpm for 1 min. […] The experiment was performed in triplicate. The standard curve was obtained by plotting the OD405 nm value with pNA concentration. • (2) Added 190 μL of reaction buffer (20 mM CaCl2 and 50 mM Tris-HCl, pH 7.8) and 10 μL of 1 μM trypsin into the 96-well plate, and preheated at 37° C. for 15 min. Then added 5 μL of different concentrations of substrates (BApNA, 0.5% in DMSO) and mixed by centrifugation at 500 rpm for 1 min. […] The experiment was performed in triplicate. The corresponding curve was obtained by plotting the OD405 nm value with time. Divided the slope of the curve by the slope of the standard curve and the enzyme concentration to obtain the initial velocity V0 (mM/(min*mM protein). Plotted the initial velocity V0 with the concentration of substrate BApNA using Prism software, and the Michaelis constant Km value of trypsin hydrolyzing BApNA was obtained.
• (1) Added a total 190 μL of reaction buffer (20 mM CaCl2 and 50 mM Tris-HCl, pH 7.8) along with different concentrations of anti-trypsin peptides (BTs) into the pre-cooled 96-well plate, followed by preheating at 37° C., and spined down at 500 rpm for 5 min. Next added 10 μL of 1 μM trypsin, incubated at 37° C., and then spined down at 500 rpm for 10 min. Finally, added 5 μL of 50 mM BApNA, and mixed by centrifugation at 500 rpm for 1 min. The plate was incubated at 37° C. for 260 min, and the absorbance value at 405 nm was measured. The experiment was performed in triplicate. The blank control only contained the reaction buffer and the substrate as the minimum absorption value (Min OD405 nm). The negative control only contained the reaction buffer, the enzyme and the substrate as the maximum absorption value (Max OD405 nm). • (2) In the reaction system of 205 μL, the final concentrations of trypsin and BApNA were 50 nM and 1.22 mM, respectively. • (3) Data statistics
Residual activity of the enzyme (%)=(1−(Max OD405 nm−Sample OD405 nm)/(Max OD405 nm−Min OD405 nm))*100
Plotted the residual activity of the enzyme with […] to obtain the half inhibitory concentration (IC50) of BTs scaffold against trypsin. Then, substituted it into the formula Ki=IC50/(1+S/Km) (S, IC50 and Km were substrate concentration, half inhibitory concentration and Michaelis constant, respectively) to obtain the inhibition constant Ki of BTs scaffold against trypsin.

[1] = Ki=IC50/(1+S/Km), Km 0.33 mM, read-out: Ki

- inhibitory activity against trypsin (in words): excellent trypsin inhibitory activities
- Residual trypsin activity (peptide 0.00098 μM): 99.7 ± 0.6%
- Residual trypsin activity (peptide 0.00488 μM): 99.8 ± 1.8%
- Residual trypsin activity (peptide 0.0098 μM): 95.5 ± 1.1%
- Residual trypsin activity (peptide 0.098 μM): 55.6 ± 2.3%
- Residual trypsin activity (peptide 0.195 μM): 17.2 ± 3.4%
- Residual trypsin activity (peptide 0.488 μM): 1.0 ± 0.1%
- Residual trypsin activity (peptide 0.7317 μM): 0.2 ± 0.1%
- Residual trypsin activity (peptide 0.98 μM): −0.1 ± 0.1%
- Ki (read-out: inhibition constant (Ki) towards trypsin): 20 nM
- IC50 (trypsin 50 nM, BApNA 1.22 mM, read-out: IC50): 110 nM
SMILES: CC[C@H](C)[C@@H]1NC(=O)[C@H](C)NC(=O)[C@@H]2CCCN2C(=O)[C@H]([C@@H](C)CC)NC(=O)[C@H](CO)NC(=O)[C@H](CCCCN)NC(=O)[C@H]([C@@H](C)O)NC(=O)[C@H](C)NC(=O)[C@H](CCCNC(=N)N)NC(=O)CNC(=O)[C@@H](N)CSSC[C@@H](C(=O)N[C@@H](Cc2ccccc2)C(=O)O)NC1=O [BT10] (H-CGRATKSIPAICF-OH; disulfide 1-12)

SMILES: CC[C@H](C)[C@@H]1NC(=O)[C@@H]2CCCN2C(=O)[C@@H]2CCCN2C(=O)[C@H]([C@@H](C)CC)NC(=O)[C@H](CO)NC(=O)[C@H](CCCCN)NC(=O)[C@H]([C@@H](C)O)NC(=O)[C@H](C)NC(=O)[C@H](CCCNC(=N)N)NC(=O)CNC(=O)[C@@H](N)CSSC[C@@H](C(=O)O)NC(=O)[C@H](Cc2ccccc2)NC(=O)[C@H](C)NC1=O [BT11] (H-CGRATKSIPPIAFC-OH; disulfide 1-14; N-terminus and C-terminus assumed)
- inhibitory activity against trypsin (in words): still maintained good inhibitory activity against trypsin
- Residual trypsin activity (peptide 0.488 μM): 100.2 ± 3.7%
- Residual trypsin activity (peptide 0.7317 μM): 102.4 ± 4.2%
- Residual trypsin activity (peptide 0.98 μM): 101.5 ± 5.1%
- Residual trypsin activity (peptide 1.561 μM): 79.3 ± 1.0%
- Residual trypsin activity (peptide 1.95 μM): 75.8 ± 4.6%
- Residual trypsin activity (peptide 2.93 μM): 6.2 ± 3.1%
- Residual trypsin activity (peptide 3.90 μM): 4.1 ± 1.0%
- Residual trypsin activity (peptide 4.88 μM): 1.4 ± 0.3%

- Residual trypsin activity (peptide 0.0488 μM): 100.5 ± 2.0%
- Residual trypsin activity (peptide 0.2439 μM): 106.5 ± 3.4%
- Residual trypsin activity (peptide 0.98 μM): 107.9 ± 1.4%
- Residual trypsin activity (peptide 3.90 μM): 68.3 ± 0.1%
- Residual trypsin activity (peptide 5.85 μM): 24.0 ± 1.2%
- Residual trypsin activity (peptide 9.76 μM): 0.7 ± 0.1%
- Residual trypsin activity (peptide 14.63 μM): 0.3 ± 0.1%
- Residual trypsin activity (peptide 19.51 μM): −0.2 ± 0.1%
SMILES: CC[C@H](C)[C@@H]1NC(=O)[C@H](CO)NC(=O)[C@H](CCCCN)NC(=O)[C@H]([C@@H](C)O)NC(=O)[C@H](C)NC(=O)[C@H](CCCNC(=N)N)NC(=O)CNC(=O)[C@@H](N)CSSC[C@@H](C(=O)N[C@@H](Cc2ccc(O)cc2)C(=O)O)NC(=O)[C@H](CCC(N)=O)NC(=O)[C@@H]2CCCN2C(=O)[C@@H]2CCCN2C1=O [BT12] (H-CGRATKSIPPQCY-OH; disulfide 1-12; N-terminus and C-terminus assumed)
- inhibitory activity against trypsin (in words): significant impact on their anti-trypsisn activities

SMILES: CC[C@H](C)[C@@H]1NC(=O)[C@@H]2CCCN2C(=O)[C@@H]2CCCN2C(=O)[C@H]([C@@H](C)CC)NC(=O)[C@H](CO)NC(=O)[C@H](CCCCN)NC(=O)[C@H]([C@@H](C)O)NC(=O)[C@H](C)NC(=O)[C@H](CCCNC(=N)N)NC(=O)CNC(=O)[C@@H](N)CSSC[C@@H](C(=O)O)NC(=O)[C@H](C)NC1=O [BT13] (H-CGRATKSIPPIAC-OH; disulfide 1-13; N-terminus and C-terminus assumed)
- inhibitory activity against trypsin (in words): still maintained good inhibitory activity against trypsin

- inhibitory activity against trypsin (in words): reduced their anti-trypsin activities
SMILES: CC(C)C[C@@H]1NC(=O)[C@H](CO)NC(=O)[C@H](CCCCN)NC(=O)[C@H]([C@@H](C)O)NC(=O)[C@H](C)NC(=O)[C@H](CCCNC(=N)N)NC(=O)CNC(=O)[C@@H](N)CSSC[C@@H](C(=O)N[C@@H](Cc2ccccc2)C(=O)O)NC(=O)[C@H](C)NC(=O)[C@@H]2CCCN2C(=O)[C@@H]2CCCN2C1=O [BT14] (H-CGRATKSLPPACF-OH; disulfide 1-12; N-terminus and C-terminus assumed)

SMILES: CC[C@H](C)[C@@H]1NC(=O)[C@H](CO)NC(=O)[C@H](CCCNC(=N)N)NC(=O)[C@H]([C@@H](C)O)NC(=O)[C@H](C)NC(=O)[C@H](CCCNC(=N)N)NC(=O)CNC(=O)[C@@H](N)CSSC[C@@H](C(=O)N[C@@H](Cc2ccccc2)C(=O)O)NC(=O)[C@H](C)NC(=O)[C@@H]2CCCN2C(=O)[C@@H]2CCCN2C1=O [BT15] (H-CGRATRSIPPACF-OH; disulfide 1-12; N-terminus and C-terminus assumed)
- inhibitory activity against trypsin (in words): significant impact on their anti-trypsisn activities

- inhibitory activity against trypsin (in words): reduced their anti-trypsin activities
- Ki [1]: 190 nM
- inhibitory activity against trypsin (in words) (listed as SEQ ID NO: 16): excellent trypsin inhibitory activities
- Residual trypsin activity (peptide 0.00488 μM): 95.4 ± 4.3%
- Residual trypsin activity (peptide 0.0098 μM): 96.1 ± 0.6%
- Residual trypsin activity (peptide 0.0195 μM): 101.7 ± 1.2%
- Residual trypsin activity (peptide 0.390 μM): 88.4 ± 2.0%
- Residual trypsin activity (peptide 0.780 μM): 59.7 ± 3.2%
- Residual trypsin activity (peptide 0.98 μM): 42.2 ± 3.3%
- Residual trypsin activity (peptide 2.439 μM): 0.8 ± 0.1%
- Residual trypsin activity (peptide 4.88 μM): 0.0 ± 0.2%
SMILES: CC[C@H](C)[C@@H]1NC(=O)[C@H](C)NC(=O)[C@@H]2CCCN2C(=O)[C@H](CC(C)C)NC(=O)[C@H](CO)NC(=O)[C@H](CCCCN)NC(=O)[C@H]([C@@H](C)O)NC(=O)[C@H](C)NC(=O)[C@H](CCCNC(=N)N)NC(=O)CNC(=O)[C@@H](N)CSSC[C@@H](C(=O)N[C@@H](Cc2ccccc2)C(=O)O)NC1=O [BT16] (H-CGRATKSLPAICF-OH; disulfide 1-12; C-terminus assumed)

- inhibitory activity against trypsin (in words): excellent trypsin inhibitory activities
- Ki [1]: 120 nM
- Residual trypsin activity (peptide 0.00098 μM): 97.9 ± 0.8%
- Residual trypsin activity (peptide 0.0098 μM): 97.5 ± 0.7%
- Residual trypsin activity (peptide 0.098 μM): 93.6 ± 4.5%
- Residual trypsin activity (peptide 0.488 μM): 61.9 ± 3.0%
- Residual trypsin activity (peptide 0.7317 μM): 30.0 ± 5.3%
- Residual trypsin activity (peptide 0.98 μM): 1.5 ± 0.3%
- Residual trypsin activity (peptide 9.76 μM): 0.1 ± 0.0%
- Residual trypsin activity (peptide 97.56 μM): 0.1 ± 0.0%
- decrease in inhibitory activity compared to BT9 (trypsin): ~12 fold
SMILES: CC[C@H](C)[C@@H]1NC(=O)[C@@H]2CCCN2C(=O)[C@@H]2CCCN2C(=O)[C@H]([C@@H](C)CC)NC(=O)[C@H](CO)NC(=O)[C@H](CCCNC(=N)N)NC(=O)[C@H]([C@@H](C)O)NC(=O)[C@H](C)NC(=O)[C@H](CCCNC(=N)N)NC(=O)CNC(=O)[C@@H](N)CSSC[C@@H](C(=O)N[C@@H](Cc2ccccc2)C(=O)O)NC1=O [BT17] (H-CGRATRSIPPICF-OH; disulfide 1-12; C-terminus assumed)

SMILES: CC[C@H](C)[C@@H]1NC(=O)[C@@H]2CCCN2C(=O)[C@@H]2CCCN2C(=O)[C@H]([C@@H](C)CC)NC(=O)[C@H](CO)NC(=O)[C@H](CCCNC(=N)N)NC(=O)[C@H]([C@@H](C)O)NC(=O)[C@H](C)NC(=O)[C@H](CCCNC(=N)N)NC(=O)CNC(=O)[C@@H](N)CSSC[C@@H](C(=O)N[C@@H](Cc2ccc(O)cc2)C(=O)O)NC1=O [BT18] (H-CGRATRSIPPICY-OH; disulfide 1-12; N-terminus and C-terminus assumed)
- inhibitory activity against trypsin (in words): significant impact on their anti-trypsisn activities
